How the values were obtained:
[1] = test system: STING; test: in vitro model of STING activation: PBMCs with ADUS100 with or without JAK-inhibitor, scRNA-seq; assay type: cell-based, human; settings: 4 hours
Source text: Sequencing reads were demultiplexed and aligned to the human reference genome (hg38), and counted using the CellRanger Pipeline v6.0. Unfiltered RNA UMI counts were loaded into Seurat v4 for quality control, data integration and downstream analyses. Apoptotic cells and empty sequencing capsules were excluded by filtering out cells with low number of features (Filters were defined based on the batch: STING1: nFeature <300; STING2 and STING3<500; IFN-stim <750) or a mitochondrial content higher than 20%. Data from each sample were normalized using sctransform, before batch correction using Seurat's FindIntegratedAnchors, on the 3,000 most variable features. For the IFN-β dataset, for computational efficiency, integration anchors were determined with a canonical correlation analysis, using all unstimulated samples as reference. For the SAVI dataset, to avoid over-aligning samples, a reciprocal principal component analysis (PCA) was used to find integration anchors. On the resulting integrated datasets, we computed the PCA on the 3000 most variable genes, before computing a UMAP (on 20 PCs for SAVI and 30 PCs for IFN-stimulation). Community detection was performed using the graph-based modularity-optimization Louvain algorithm from Seurat's FindClusters function with a 1.2 resolution. Cell types labels were assigned to resulting clusters based on a manually curated list of marker genes as well as previously defined signatures of the PBMC subtypes.^58 Despite filtering for high quality cells, 11/34 clusters in the SAVI dataset and 7/36 in the IFN-β dataset stood out as poor quality clusters and were removed from further analysis. They represented low UMI cells, dying cells, cycling cells, doublets, or contaminants (progenitor cells, basophils, platelets or megakaryocytes). […] Transcriptomic signatures scores were calculated using Seurat's AddModuleScore function. […]
Human PBMC samples were obtained from Promocell (C-12907 promocell, lot 434Z036). […] Libraries were sequenced on a Novaseq (Illumina), with 26 cycles of read 1, 8 cycles of i7 index and 98 cycles of read 2. […]

[2] = test system: SAVI patients; settings: SAVI patients treated with JAK-inhibitors; cited from earlier work
[3] = test system: T cell; settings: cited from earlier work
[4] = PBMCs from a healthy donor, ADUS100 3 mM, vs unstimulated

Nc1ncnc2c1ncn2[C@@H]1O[C@@H]2COP(=O)([S-])O[C@@H]3[C@H](O)[C@@H](COP([O-])(=S)O[C@H]2[C@H]1O)O[C@H]3n1cnc2c(N)ncnc21.[Na+].[Na+] (some centres unmarked) [ADUS100]
score of NF-κB activation [1, 4]: increased | score of type I IFN response [1, 4]: increased | STING-associated signature (21 genes) ([1]; monocytes and DCs of stimulated PBMCs): strong increase

C[C@@H]1CCN(C(=O)CC#N)C[C@@H]1N(C)c1ncnc2[nH]ccc12 [Tofacitinib, tofacitinib]
symptoms of SAVI patients [2]: partial improvements of the symptoms | T cell proliferation [3]: inhibit T cell proliferation

— patent US20260275412A1, “A GENE SIGNATURE FOR DIAGNOSING STIMULATOR OF INTERFERON GENES (STING)-ASSOCIATED VASCULOPATHY WITH ONSET IN INFANCY (SAVI)” (INSTITUT NATIONAL DE LA SANTÉ ET DE LA RECHERCHE MÉDICALE, priority 2023, published 2026)
